Test [1] deals with CK1δ/ε. Nature of the test: CK1δ/ε in vitro kinase assay (33P-ATP, CK1-specific peptide substrate). The test is classed as biochemical, Porcine. As to conditions: 15 μM ATP, 30 min at 30 °C, triplicate; <50% inhibition at 10 µM reported as >10. As for the experimental part: (§1) Controls were performed with appropriate dilutions of dimethylsulfoxide (DMSO). IC50 values were calculated from dose-response curves established by Sigma-Plots. The GSK-3, CK1, DYRK1A and CLK1 peptide substrates were obtained from Proteogenix (Oberhausbergen, France).
(§2) CDK5/p25. (Human, recombinant) was prepared as previously described. […] ATP (3000 Ci/mmol; 10 mCi/mL) in a final volume of 30 μL. After 30 min incubation at 30 °C, 25 μL aliquots of supernatant were spotted onto sheets of Whatman P81 phosphocellulose paper, and 20 s later, the filters were washed eight times (for at least 5 min each time) in a solution of 10 mL phosphoric acid/L of water. The wet filters were counted in the presence of 1 mL ACS (Amersham) scintillation fluid.
CK1δ/ε. (Porcine brain, native) was assayed as described for CDK5/p25, but using the CK1-specific peptide substrate […]pSAYSITA [23].

The target of test [2] is DYRK1A (Rattus norvegicus, UniProt Q63470). The test is described as follows: DYRK1A in vitro kinase assay (33P-ATP, Woodtide substrate). The test is classed as biochemical. Here is the method:
(§3) Buffer A: MgCl2 (10 mM), 1 mM ethylene glycol-bis(2-aminoethylether)-N,N,N',N'-tetraacetic acid (EGTA), 1 mM dithiothreitol (DTT), 25 mM Tris-HCl pH 7.5, 50 μg heparin/mL.
as §1, §2

Test [3] has as its target T1, CDK5/p25 (Homo sapiens, UniProt Q00535).
T1 construct: made in house
Nature of the test: CDK5/p25 in vitro kinase assay (33P-ATP, histone H1). The test is classed as biochemical. The following applies: read-out: CDK5 IC50. As for the experimental part: as §3, §1, §2

Test [4] addresses GSK-3α/β. Nature of the test: GSK-3α/β in vitro kinase assay (33P-ATP, GS-1 peptide). The test is classed as biochemical, Porcine. The following applies: 15 μM ATP, 30 min at 30 °C, triplicate; <50% inhibition at 10 µM reported as >10; read-out: GSK3 IC50. Here is the method:
as §3, §1, §2
GSK-3α/β. (Porcine brain, native) was assayed as described for CDK5/p25, but in buffer A and using a GSK-3 specific substrate (GS-1: […]pSEDEEE) (pS stands for phosphorylated serine).

[5] abbreviates: 15 μM ATP, 30 min at 30 °C, triplicate, <50% inhibition at 10 µM reported as >10.

Molecules are shown by their SMILES. pIC50: −log10 of the molar value. Where two headings read alike, the source gives them in different places.

T1 sequence (Q00535 whole entry): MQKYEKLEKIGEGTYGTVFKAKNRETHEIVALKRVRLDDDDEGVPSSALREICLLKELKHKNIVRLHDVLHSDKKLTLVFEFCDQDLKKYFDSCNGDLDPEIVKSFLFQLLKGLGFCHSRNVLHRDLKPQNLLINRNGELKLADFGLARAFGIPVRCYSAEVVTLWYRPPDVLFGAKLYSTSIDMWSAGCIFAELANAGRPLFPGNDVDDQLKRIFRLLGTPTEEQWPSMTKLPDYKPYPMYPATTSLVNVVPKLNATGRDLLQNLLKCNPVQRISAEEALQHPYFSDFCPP
T1 sequence (Q15078 99-307 partner limits assumed): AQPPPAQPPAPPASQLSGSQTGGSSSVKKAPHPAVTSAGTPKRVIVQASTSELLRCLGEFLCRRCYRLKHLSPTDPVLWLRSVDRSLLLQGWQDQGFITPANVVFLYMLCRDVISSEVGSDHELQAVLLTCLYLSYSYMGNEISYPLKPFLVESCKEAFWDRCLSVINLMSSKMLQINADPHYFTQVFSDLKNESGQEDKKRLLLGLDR

What is called pIC50 is −log10 of the IC50, conventionally taken in molar units. As to `COc1ccc(Nc2ncnc3ccc4nc(C(=N)NCCN5CCCCC5)sc4c23)cc1` [Compound 7b, 9-(4-Methoxyphenylamino)-N-(2-(piperidin-1-yl)ethyl)thiazolo[5,4-f]quinazoline-2-carboximidamide], the pIC50 in test [1] was less than 5.00; in test [2] it was less than 5.00; in test [3] it was less than 5.00; in test [4], 5.60.

`N=C(NCc1ccccc1)c1nc2ccc3ncnc(Nc4ccc(Br)cc4F)c3c2s1` [Compound 9f, N-Benzyl-9-(4-bromo-2-fluorophenylamino)thiazolo[5,4-f]quinazoline-2-carboximidamide]: the pIC50 in test [1] was less than 5.00; in test [2] it was less than 5.00; in test [3] it was less than 5.00; in test [4] it was 5.74.

On to `CCN(CC)CCNC(=N)c1nc2ccc3ncnc(Nc4ccc5c(c4)OCO5)c3c2s1` [Compound 8e, 9-(Benzo[d][1,3]dioxol-5-ylamino)-N-(2-(diethylamino)ethyl)thiazolo[5,4-f]quinazoline-2-carboxi-midamide], for which the negative logarithm of the IC50 (pIC50) is less than 5.00 in test [1], 5.19 in test [2] (setting [5]), less than 5.00 in test [3] (setting [5]) and 6.10 in test [4].

Take `CCN(CC)CCNC(=N)c1nc2ccc3ncnc(Nc4ccc(F)c(Cl)c4)c3c2s1` [Compound 10e, 9-(3-Chloro-4-fluorophenylamino)-N-(2-(diethylamino)ethyl)thiazolo[5,4-f]quinazoline-2-carboxi-midamide]: the pIC50 in test [1] is less than 5.00; in test [2] (setting [5]), less than 5.00; in test [3] (setting [5]), less than 5.00; in test [4] it was 5.15.

As for `COc1ccc(Nc2ncnc3ccc4nc(C(=N)NCCN5CCCC5)sc4c23)cc1` [Compound 7c, 9-(4-Methoxyphenylamino)-N-(2-(pyrrolidin-1-yl)ethyl)thiazolo[5,4-f]quinazoline-2-carboximidamide], the negative logarithm of the IC50 (pIC50) in test [1] was less than 5.00; in test [2], less than 5.00; in test [3], less than 5.00; in test [4] it was 5.70.

Take `CN(C)CCNC(=N)c1nc2ccc3ncnc(Nc4ccc(F)c(Cl)c4)c3c2s1` [Compound 10d, 9-(3-Chloro-4-fluorophenylamino)-N-(2-(dimethylamino)ethyl)thiazolo[5,4-f]quinazoline-2-carboxi-midamide]: the negative logarithm of the IC50 (pIC50) in test [1] was less than 5.00; in test [2] (setting [5]), less than 5.00; in test [3] (setting [5]) it was less than 5.00; in test [4], 5.52.

As to `N=C(NCCN1CCCC1)c1nc2ccc3ncnc(Nc4ccc(F)c(Cl)c4)c3c2s1` [Compound 10c, 9-(3-Chloro-4-fluorophenylamino)-N-(2-(pyrrolidin-1-yl)ethyl)thiazolo[5,4-f]quinazoline-2-carboxi-midamide], the negative logarithm of the IC50 (pIC50) was less than 5.00 in test [1], less than 5.00 in test [2] (setting [5]), less than 5.00 in test [3] (setting [5]) and 5.60 in test [4].

For the compound `COc1ccc(Nc2ncnc3ccc4nc(C(=N)NCCN5CCOCC5)sc4c23)cc1` [Compound 7a, 9-(4-Methoxyphenylamino)-N-(2-morpholinoethyl)thiazolo[5,4-f]quinazoline-2-carboximidamide], the pIC50 was less than 5.00 in test [1], less than 5.00 in test [2], less than 5.00 in test [3] and 5.96 in test [4].

Turning to `N=C(NCc1ccccc1)c1nc2ccc3ncnc(Nc4ccc(F)c(Cl)c4)c3c2s1` [Compound 10f, N-Benzyl-9-(3-chloro-4-fluorophenylamino)thiazolo[5,4-f]quinazoline-2-carboximidamide], the pIC50 in test [1], in test [2], in test [3] and in test [4] was less than 5.00 each time.

`N=C(NCCN1CCOCC1)c1nc2ccc3ncnc(Nc4ccc5c(c4)OCO5)c3c2s1` [Compound 8a, 9-(Benzo[d][1,3]dioxol-5-ylamino)-N-(2-morpholinoethyl)thiazolo[5,4-f]quinazoline-2-carboximidamide]: the pIC50 was less than 5.00 in test [1], 5.66 in test [2], less than 5.00 in test [3] and 6.01 in test [4].

Turning to `N=C(NCCN1CCOCC1)c1nc2ccc3ncnc(Nc4ccc(F)c(Cl)c4)c3c2s1` [Compound 10a, 9-(3-Chloro-4-fluorophenylamino)-N-(2-morpholinoethyl)thiazolo[5,4-f]quinazoline-2-carboximid-amide], the pIC50 is less than 5.00 in test [1], less than 5.00 in test [2] (setting [5]), less than 5.00 in test [3] (setting [5]) and 5.46 in test [4].

`N=C(NCCN1CCCCC1)c1nc2ccc3ncnc(Nc4ccc5c(c4)OCO5)c3c2s1` [Compound 8b, 9-(Benzo[d][1,3]dioxol-5-ylamino)-N-(2-(piperidin-1-yl)ethyl)thiazolo[5,4-f]quinazoline-2-carboximi-damide]: the pIC50 in test [1] was less than 5.00; in test [2] (setting [5]), 5.70; in test [3] (setting [5]), less than 5.00; in test [4] it was 5.96.

On to `COc1ccc(Nc2ncnc3ccc4nc(C(=N)NCCN(C)C)sc4c23)cc1` [Compound 7d, N-(2-(Dimethylamino)ethyl)-9-(4-methoxyphenylamino)thiazolo[5,4-f]quinazoline-2-carboximidamide], for which the pIC50 in test [1], in test [2], in test [3] and in test [4] was less than 5.00 in each case.

With `NC(=O)c1nc2ccc3ncnc(Nc4ccc(Br)cc4F)c3c2s1` [Compound 9h, 9-(4-Bromo-2-fluorophenylamino)thiazolo[5,4-f]quinazoline-2-carboxamide], the pIC50 in test [1] is less than 5.00; in test [2] it was 6.17; in test [3] it was less than 5.00; in test [4], 6.89.

`COC(=N)c1nc2ccc3ncnc(Nc4ccc5c(c4)OCO5)c3c2s1` [Compound 8i, Methyl 9-(benzo[d][1,3]dioxol-5-ylamino)thiazolo[5,4-f]quinazoline-2-carbimidate]: the pIC50 in test [1] was less than 5.00; in test [2] it was 7.33; in test [3], less than 5.00; in test [4] it was 6.18.

For `NC(=O)c1nc2ccc3ncnc(Nc4ccc5c(c4)OCO5)c3c2s1` [Compound 8h, 9-(Benzo[d][1,3]dioxol-5-ylamino)thiazolo[5,4-f]quinazoline-2-carboxamide], the negative logarithm of the IC50 (pIC50) in test [1] is less than 5.00; in test [2], 6.10; in test [3] it was less than 5.00; in test [4], 6.11.

As to `COc1ccc(Nc2ncnc3ccc4nc(C(=N)NCc5ccccc5)sc4c23)cc1` [Compound 7f, N-Benzyl-9-(4-methoxyphenylamino)thiazolo[5,4-f]quinazoline-2-carboximidamide], the pIC50 in test [1] was less than 5.00; in test [2], 5.10; in test [3], less than 5.00; in test [4], 5.70.

`CN(C)C(=N)c1nc2ccc3ncnc(Nc4ccc(Br)cc4F)c3c2s1` [Compound 9g]: the pIC50 in test [1] was less than 5.00; in test [2] (setting [5]), 6.57; in test [3] (setting [5]), less than 5.00; in test [4] it was 6.22.

On to `CN(C)CCNC(=N)c1nc2ccc3ncnc(Nc4ccc5c(c4)OCO5)c3c2s1` [Compound 8d, 9-(Benzo[d][1,3]dioxol-5-ylamino)-N-(2-(dimethylamino)ethyl)thiazolo[5,4-f]quinazoline-2-carboxi-midamide], for which the pIC50 was less than 5.00 in test [1], 5.98 in test [2] (setting [5]), less than 5.00 in test [3] (setting [5]) and 6.60 in test [4].

With `N=C(NCCN1CCCCC1)c1nc2ccc3ncnc(Nc4ccc(Br)cc4F)c3c2s1` [Compound 9b, 9-(4-Bromo-2-fluorophenylamino)-N-(2-(piperidin-1-yl)ethyl)thiazolo[5,4-f]quinazoline-2-carboxi-midamide], the pIC50 is less than 5.00 in test [1], less than 5.00 in test [2] (setting [5]), less than 5.00 in test [3] (setting [5]) and 6.28 in test [4].

In the case of `N=C(NCCN1CCCC1)c1nc2ccc3ncnc(Nc4ccc(Br)cc4F)c3c2s1` [Compound 9c, 9-(4-Bromo-2-fluorophenylamino)-N-(2-(pyrrolidin-1-yl)ethyl)thiazolo[5,4-f]quinazoline-2-carboxi-midamide], the negative logarithm of the IC50 (pIC50) in test [1] is less than 5.00; in test [2] (setting [5]), less than 5.00; in test [3] (setting [5]) it was less than 5.00; in test [4] it was 5.66.

As to `N=C(NCc1ccccc1)c1nc2ccc3ncnc(Nc4ccc5c(c4)OCO5)c3c2s1` [Compound 8f, 9-(Benzo[d][1,3]dioxol-5-ylamino)-N-benzylthiazolo[5,4-f]quinazoline-2-carboximidamide], the negative logarithm of the IC50 (pIC50) was less than 5.00 in test [1], less than 5.00 in test [2], less than 5.00 in test [3] and 5.70 in test [4].

(Values after article PMC6270991, “Design and Synthesis of Thiazolo[5,4-f]quinazolines as DYRK1A Inhibitors, Part I” (Molecules, 2014).)
